In patent publication US8153767B2 (priority 2006, dated 2012):
Converted amounts (≈) assume the structure as drawn.

Experiments:
[1] = tested on: monoclonal antibody useful for detecting all aflatoxins (JP-A 4-360695); conditions: cited from earlier work
[2] = tested on: mouse antiserum (aflatoxin B1 hapten immunogen)
[3] = tested on: rabbit antiserum (aflatoxin B1 hapten immunogen)
[4] = tested on: antibody AF-1 (JP-A 63-219394); conditions: cited from earlier work

SMILES	crossreactivities in terms of IC50 [1] [ng/mL]	IC50 [2] [ng/mL]	IC50 [3] [ng/mL]	ability to bind to G1 relative to its ability to bind to B1 or B2 [4]
COc1cc2c(c3oc(=O)c4c(c13)CCC4=O)C1C=COC1O2 (stereo not drawn) [Aflatoxin B1]	0.44	0.07 (≈ 0.224 nM)	0.07 (≈ 0.224 nM)	–
COc1cc2c(c3oc(=O)c4c(c13)CCC4=O)C1CCOC1O2 (stereo not drawn) [Aflatoxin B2]	2.1	1.5 (≈ 4.77 nM)	1.7 (≈ 5.41 nM)	–
COc1cc2c(c3oc(=O)c4c(c13)CCOC4=O)C1C=COC1O2 (stereo not drawn) [Aflatoxin G1]	2.4	0.6 (≈ 1.83 nM)	0.63 (≈ 1.92 nM)	1/10
COc1cc2c(c3oc(=O)c4c(c13)CCOC4=O)C1CCOC1O2 (stereo not drawn) [Aflatoxin G2]	5.2	16 (≈ 48.4 nM)	18 (≈ 54.5 nM)	–
COc1cc2c(c3oc(=O)c4c(c13)CCC4=O)C1(O)C=COC1O2 (stereo not drawn) [Aflatoxin M1]	–	11 (≈ 33.5 nM)	14 (≈ 42.6 nM)	–
